Measured values taken from PubChem BioAssay (NCI).
“And” between values parts separate entries of the source, which are not always exact repeats. Equal values may be shown once.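 Test compounds were applied to cells in 96-well plates for 48 hours at 5 doses. GI50: concentration for 50% inhibition of growth. TGI is the concentration that stops growth completely.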

How the values were obtained:
Experiment in all cases: NCI anticancer screen, dose series, 48 h
T-47D breast = tested on: T-47D breast
CAKI-1 renal = tested on: CAKI-1 renal
SNB-19 CNS = tested on: SNB-19 CNS
UACC-257 melanoma = tested on: UACC-257 melanoma
OVCAR-5 ovarian = tested on: OVCAR-5 ovarian
HCT-15 colon = tested on: HCT-15 colon

Row | SMILES | GI50 (T-47D breast) | TGI (T-47D breast) | GI50 (CAKI-1 renal) [µM] | TGI (CAKI-1 renal) [µM] | GI50 (SNB-19 CNS) | TGI (SNB-19 CNS) [µM] | GI50 (UACC-257 melanoma) | TGI (UACC-257 melanoma) | GI50 (OVCAR-5 ovarian) | TGI (OVCAR-5 ovarian) [µM] | GI50 (HCT-15 colon) | TGI (HCT-15 colon)
1 | CCOC(=O)c1cc2c(cc1Cl)SC(=Nc1ccccc1)N(S(=O)(=O)c1ccc(Cl)cc1)S2(=O)=O | 3.84 µM | 23.4 µM | 15.7 | 33.7 | 20.2 µM | > 100 | 17.6 µM | 40.3 µM | 19.4 µM | 36.8 | 6.52 µM | 21.9 µM
2 | CNC(=O)c1cc(Oc2ccc(NC(=O)Nc3ccc(Cl)c(C(F)(F)F)c3)c(F)c2)ccn1 | 2.08 µM and 1.53 µM | 9.1 µM and 7.49 µM | 2.95 | > 30.4 | 4.27 µM and 4.06 µM | > 41.6 | 1.97 µM and 1.35 µM | 6.03 µM and 5.1 µM | 2.68 µM and 2.3 µM | > 44.4 | 3 µM and 2.35 µM | > 32.9 µM and 9.96 µM
3 | O=S(=O)(O)c1cc(O)c(N=Nc2ccc(O)cc2O)c2ccccc12 | – | – | – | > 100 | – | > 100 | – | > 100 µM | – | > 100 | – | > 100 µM
4 | NC(=O)c1cc([N+](=O)[O-])c(Cl)c([N+](=O)[O-])c1Cl | – | – | 1.84 | 3.72 | 2.29 µM | 5.93 | 1.13 µM | 2.38 µM | 2.3 µM | 4.59 | 0.458 µM | 3.25 µM
5 | CC1CC[P+](c2ccccc2)(c2ccccc2)c2c1ccc1ccccc21 (configuration not stated) | – | > 71.6 µM | – | 32.6 | – | 97.4 | – | 13.9 µM | – | > 100 | – | > 100 µM
6 | NCCCC[C@@H]1NC(=O)[C@H](CC(=O)O)NC(=O)CNC(=O)[C@H](CCCN=C(N)N)NC(=O)[C@@H](N)CSSC[C@@H](C(=O)O)NC(=O)[C@H](CC(=O)O)NC(=O)[C@@H]2CCCN2C(=O)CNC1=O | > 100 µM | > 100 µM | > 100 | > 100 | > 100 µM | > 100 | > 100 µM | > 100 µM | > 100 µM | > 100 | > 100 µM | > 100 µM
7 | O=C(CCCN1CCC(O)(c2ccc(Cl)cc2)CC1)c1ccc(F)cc1 | – | > 100 µM | – | 23.4 | – | > 100 | – | 46.7 µM | – | > 100 | – | 37.5 µM
8 | COc1ccc2c(c1)[nH]c(=O)c1c3cccc(F)c3cn21 | 42.1 µM | > 100 µM | 0.0137 | 0.04 | 0.218 µM | > 69.6 | > 92.9 µM | > 100 µM | 0.508 µM | > 100 | 0.0458 µM | > 100 µM
9 | Cc1ccc(/C=N/Nc2nc(Nc3ccccc3)nc(-n3nc(C)cc3C)n2)cc1 | 2.55 µM | 7.41 µM | 2.56 | 9.45 | – | – | 9.04 µM | 39.5 µM | 15.4 µM | > 100 | 2.63 µM | 46.4 µM
10 | Cc1cccc2nc3ccccc3c(Nc3ccc(NS(C)(=O)=O)cc3)c12 | 7.59 µM | 24 µM | 3.63 | 19.9 | 6.98 µM | 56.2 | 10.4 µM | 22.9 µM | 16.4 µM | 38.9 | 5.89 µM | 31.6 µM
11 | CCC(C)[C@H](NC(=O)Nc1cc(C(F)(F)F)cc(C(F)(F)F)c1)C(=O)N[C@@H](Cc1cn(C)cn1)C(=O)OC (some centres not stated) | 0.912 µM | 1.74 µM | 2.08 | 4 | 0.672 µM | 1.52 | 1.3 µM | 1.85 µM | 1.32 µM | 1.83 | 1.4 µM | 2.21 µM
12 | CC(C)(C)c1ccc(Oc2ccc(N)cn2)cc1 | 26.2 µM | > 100 µM | 21 | > 100 | > 100 µM | > 100 | 37.8 µM | > 100 µM | > 100 µM | > 100 | 43.9 µM | > 100 µM
13 | Nc1nc([Se])c2ncn(C3OC(CO)C(O)C3O)c2n1 (configuration not stated) | 28.8 µM | > 100 µM | 22.5 | > 100 | > 100 µM | > 100 | 37.5 µM | > 100 µM | 8.24 µM | > 100 | 7.84 µM | > 100 µM
14 | COc1ccc(CN2c3ccccc3Sc3ccccc32)c(C(F)(F)F)c1 | – | – | 1.53 | > 100 | 3.8 µM | > 100 | – | – | 9.75 µM | > 100 | 0.489 µM | > 100 µM
15 | CCOCCCn1c2c(c3c(O)cccc31)C(=O)c1ccccc1-2 | 13.9 µM | 46.5 µM | 21.6 | 64.1 | 26.7 µM | > 100 | 27.8 µM | 68.6 µM | 17.8 µM | 39.9 | 26.8 µM | 65.6 µM
16 | CCC(C)Nc1ccc(N)cc1 (configuration not stated) | 3.63 µM | 14.1 µM | 16.7 | > 100 | 8.42 µM | 52.5 | 5.33 µM | 16.9 µM | 13.8 µM | 39.8 | 3.84 µM | 15.6 µM
17 | COc1ccc2c(c1OC)CO[C@@H]2[C@H]1c2c(cc3c(c2OC)OCO3)CCN1S(=O)(=O)c1cn(C)cn1 | 16.9 µM | > 100 µM | 1.01 | > 100 | 1.76 µM | > 100 | 9.43 µM | > 100 µM | 4.22 µM | > 100 | 0.722 µM | > 100 µM
18 | COC(=O)[C@H](Cc1cnc[nH]1)NC(=O)[C@@H](NC(=O)Nc1cc(C(F)(F)F)cc(C(F)(F)F)c1)C(C)C | 12.4 µM | 28 µM | 15.9 | 32.7 | 10.9 µM | 23.2 | 15.7 µM | 29.9 µM | 16.5 µM | 31.1 | 18.2 µM | 36 µM
19 | CNC(=O)c1c(NC(=O)c2ccc(C(C)(C)C)cc2)sc2c(CN(C)C)c(O)ccc12 | – | – | 1.68 | 3.25 | – | – | 1.95 µM | 4.09 µM | 1.85 µM | 3.68 | 0.459 µM | 1.82 µM
20 | O=C(Nc1ccccc1)Nc1ccc2cc3ccc(NC(=O)Nc4ccccc4)cc3nc2c1 | 1.53 µM | 3.08 µM | 2.95 | 12.3 | 1.58 µM | 3.05 | – | – | 3.1 µM | > 100 | 37.2 µM | > 100 µM
